Experimental data from US4178442A, “Novel cinnamoyles piperazines and homopiperazines, the method of preparing them and their application in therapeutics” (Delalande S. A., priority 1977, dated 1979).
Structures can show the parent of a compound that is named as a salt. Where two headings read alike, the source gives them in different places.

How the values were obtained:
anaesthetized dog = assay: Antiangorous activity on anaesthetized dog: consumption of oxygen in the left ventricule and cardiac effort (KATZ's index); format: in vivo; details: for inhibition in vivo at […]: 0.15 mg/kg i.v. slow perfusion
Summary of the method: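 Katz index taken as mean arterial pressure multiplied by ECG (D2) heart rate, and myocardial O2 use as coronary sinus flow via modified Morawitz cannula times coronary arteriovenous O2 difference. Animals: pentobarbital-anaesthetized dogs (30 mg/kg i.v.), test compounds infused slowly intravenously.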

in vivo = details: for LD50: read-out: Toxicity: LD50; for mortality: read-out: Toxicity (Mortality)
Description: *LD50 or percentage of mortality which is given between brackets

[1] = Canis lupus familiaris, iv, 0.14 mg/kg i.v. slow perfusion, read-out: Diminution in consumption of O2
[2] = Canis lupus familiaris, iv, 0.14 mg/kg i.v. slow perfusion, read-out: Diminution in the cardiac effort (IK)
[3] = Canis lupus familiaris, iv, read-out: Diminution in consumption of O2
[4] = Canis lupus familiaris, iv, read-out: Diminution in the cardiac effort (IK)
[5] = Canis lupus familiaris, iv, 2.5 mg/kg i.v. slow perfusion, read-out: Diminution in consumption of O2
[6] = Canis lupus familiaris, iv, 2.5 mg/kg i.v. slow perfusion, read-out: Diminution in the cardiac effort (IK)
[7] = 0.625 mg/kg i.v. slow perfusion
[8] = Canis lupus familiaris, iv, 0.625 mg/kg i.v. slow perfusion, read-out: Diminution in consumption of O2
[9] = Canis lupus familiaris, iv, 0.625 mg/kg i.v. slow perfusion, read-out: Diminution in the cardiac effort (IK)

## COc1cc(/C=C/C(=O)N2CCN(CC(O)COc3ccc(NC(=O)NC4CCCCC4)c4c3OCCO4)CC2)cc(OC)c1OC (stereo not shown) [770 081]
Anaesthetized dog; 0.14 mg/kg i.v. slow perfusion
  Diminution in consumption of O2: in time: 53 min
  Diminution in the cardiac effort (IK): in time: 15 min
Anaesthetized dog; [1]
  inhibition in vivo at 0.14 mg/kg: 58%
Anaesthetized dog; [2]
  inhibition in vivo at 0.14 mg/kg: 20%
In vivo; iv
  LD50: 148 mg/kg

## COc1cc(/C=C/C(=O)N2CCN(CC(O)COc3ccc(NC(=O)Nc4ccccc4)c4c3OCCO4)CC2)cc(OC)c1OC (stereo not shown) [770 085]
Anaesthetized dog; [3]
  inhibition in vivo at […]: 44%
Anaesthetized dog; [4]
  inhibition in vivo at […]: 14%
In vivo; po, p.o.: 1855 mg/kg
  mortality: 0%

## COc1cccc(SCC(O)CN2CCN(C(=O)/C=C/c3cc(OC)c(OC)c(OC)c3)CC2)c1 (stereo not shown) [770 112]
Anaesthetized dog; 2.3 mg/kg i.v. slow perfusion
  Diminution in consumption of O2: in time: 23 min
  Diminution in the cardiac effort (IK): in time: 15 min
Anaesthetized dog; Canis lupus familiaris, iv, 2.3 mg/kg i.v. slow perfusion, read-out: Diminution in consumption of O2
  inhibition in vivo at 2.3 mg/kg: 34%
Anaesthetized dog; Canis lupus familiaris, iv, 2.3 mg/kg i.v. slow perfusion, read-out: Diminution in the cardiac effort (IK)
  inhibition in vivo at 2.3 mg/kg: 7%
In vivo; iv
  LD50: 224 mg/kg

## CNC(=O)c1ccc(OCC(O)CN2CCN(C(=O)/C=C/c3cc(OC)c(OC)c(OC)c3)CC2)cc1 (stereo not shown) [770 135]
Anaesthetized dog; 1.25 mg/kg i.v. slow perfusion
  Diminution in consumption of O2: in time: 30 min
  Diminution in the cardiac effort (IK): in time: 30 min
Anaesthetized dog; Canis lupus familiaris, iv, 1.25 mg/kg i.v. slow perfusion, read-out: Diminution in consumption of O2
  inhibition in vivo at 1.25 mg/kg: 40%
Anaesthetized dog; Canis lupus familiaris, iv, 1.25 mg/kg i.v. slow perfusion, read-out: Diminution in the cardiac effort (IK)
  inhibition in vivo at 1.25 mg/kg: 28%
In vivo; iv, 400 mg/kg i.v.
  mortality: 0%

## CCc1ccc(OCC(O)CN2CCN(C(=O)/C=C/c3cc(OC)c(OC)c(OC)c3)CC2)c2c1OCCO2 (stereo not shown) [770 142]
Anaesthetized dog; 1.1 mg/kg i.v. slow perfusion
  Diminution in consumption of O2: in time: 30 min
Anaesthetized dog; Canis lupus familiaris, iv, 1.1 mg/kg i.v. slow perfusion, read-out: Diminution in consumption of O2
  inhibition in vivo at 1.1 mg/kg: 29%
In vivo; iv
  LD50: 116 mg/kg

## CC(=O)c1ccc(OCC(O)CN2CCN(C(=O)/C=C/c3ccc(F)cc3)CC2)c2c1OCCO2 (stereo not shown) [770 199]
Anaesthetized dog; 1.02 mg/kg i.v. slow perfusion
  Diminution in consumption of O2: in time: 15 min
  Diminution in the cardiac effort (IK): in time: 15 min
Anaesthetized dog; Canis lupus familiaris, iv, 1.02 mg/kg i.v. slow perfusion, read-out: Diminution in consumption of O2
  inhibition in vivo at 1.02 mg/kg: 29%
Anaesthetized dog; Canis lupus familiaris, iv, 1.02 mg/kg i.v. slow perfusion, read-out: Diminution in the cardiac effort (IK)
  inhibition in vivo at 1.02 mg/kg: 5%
In vivo; iv
  LD50: 328 mg/kg

## COc1cc(/C=C/C(=O)N2CCN(CC(O)COc3ccc(C(C)=O)c4c3OCCO4)CC2)cc(OC)c1O (stereo not shown) [770 274, 1-[3-(4-acetyl-2,3-ethylenedioxy)phenoxy-2-hydroxy]propyl-4-(3,5-dimethoxy-4-hydroxycinnamoyl)piperazine oxalate]
Anaesthetized dog; 2.5 mg/kg i.v. slow perfusion
  Diminution in consumption of O2: in time: 30 min
  Diminution in the cardiac effort (IK): in time: 15 min
Anaesthetized dog; [5]
  inhibition in vivo at 2.5 mg/kg: 41%
Anaesthetized dog; [6]
  inhibition in vivo at 2.5 mg/kg: 10%
In vivo; iv, 336 mg/kg i.v.
  mortality: 30%

## COc1cc(/C=C/C(=O)N2CCN(CC(O)COCc3ccccc3)CC2)cc(OC)c1OC (stereo not shown) [770 276]
Anaesthetized dog; 2.5 mg/kg i.v. slow perfusion
  Diminution in consumption of O2: in time: 23 min
Anaesthetized dog; [5]
  inhibition in vivo at 2.5 mg/kg: 59%
In vivo; iv
  LD50: 248 mg/kg

## CCNC(=O)Nc1ccc(OCC(O)CN2CCN(C(=O)/C=C/c3cc(OC)c(OC)c(OC)c3)CC2)c2c1OCCO2 (stereo not shown) [770 307]
Anaesthetized dog; [3]
  inhibition in vivo at […]: 43%
Anaesthetized dog; [4]
  inhibition in vivo at […]: 11%
In vivo; iv, 367 mg/kg i.v.
  mortality: 10%

## CCOC(=O)Cc1ccc(OCC(O)CN2CCN(C(=O)/C=C/c3cc(OC)c(OC)c(OC)c3)CC2)c2c1OCCO2 (stereo not shown) [770 312]
Anaesthetized dog; 0.14 mg/kg i.v. slow perfusion
  Diminution in consumption of O2: in time: 30 min
Anaesthetized dog; [1]
  inhibition in vivo at 0.14 mg/kg: 30%
Anaesthetized dog; [2]
  inhibition in vivo at 0.14 mg/kg: 9%
In vivo; iv
  LD50: 259 mg/kg

## CNC(=O)Cc1ccc(OCC(O)CN2CCN(C(=O)/C=C/c3cc(OC)c(OC)c(OC)c3)CC2)c2c1OCCO2 (stereo not shown) [770 382]
Anaesthetized dog; [7]
  Diminution in consumption of O2: in time: 15 min
  Diminution in the cardiac effort (IK): in time: 15 min
Anaesthetized dog; [8]
  inhibition in vivo at 0.625 mg/kg: 36%
Anaesthetized dog; [9]
  inhibition in vivo at 0.625 mg/kg: 16%
In vivo; iv, 400 mg/kg i.v.
  mortality: 30%

## COc1cc(/C=C/C(=O)N2CCN(CC(O)COc3ccc(CC(N)=O)c4c3OCCO4)CC2)cc(OC)c1OC (stereo not shown) [770 386]
Anaesthetized dog; [7]
  Diminution in consumption of O2: in time: 30 min
  Diminution in the cardiac effort (IK): in time: 30 min
Anaesthetized dog; [8]
  inhibition in vivo at 0.625 mg/kg: 41%
Anaesthetized dog; [9]
  inhibition in vivo at 0.625 mg/kg: 20%
In vivo; iv, 400 mg/kg i.v.
  mortality: 20%

## CCCNC(=O)Nc1ccc(OCC(O)CN2CCN(C(=O)/C=C/c3cc(OC)c(OC)c(OC)c3)CC2)c2c1OCCO2 (stereo not shown) [770 483]
Anaesthetized dog; [3]
  inhibition in vivo at […]: 74%
Anaesthetized dog; [4]
  inhibition in vivo at […]: 16%
In vivo; po, p.o.: 2000 mg/kg
  mortality: 0%

## COc1cc(NC(C)=O)ccc1OCC(O)CN1CCN(C(=O)/C=C/c2cc(OC)c(OC)c(OC)c2)CC1 (stereo not shown) [770 487]
Anaesthetized dog; 2.5 mg/kg i.v. slow perfusion
  Diminution in consumption of O2: in time: 60 min
Anaesthetized dog; [5]
  inhibition in vivo at 2.5 mg/kg: 47%
Anaesthetized dog; [6]
  inhibition in vivo at 2.5 mg/kg: 14%
In vivo; iv, 400 mg/kg i.v.
  mortality: 30%
